One substance from PMC11865978, “Cellular Activity of CQWW Nullomer-Derived Peptides” (ACS Omega, 2025) can be followed below.

What all share (assay type): cell-based, human
One assay deals with GCGR-E13. The conditions noted are these: 72 h. The procedure:
(§1) Peptides were tested in an automated image-based high-content[42] cell painting[43],[44] assay that was originally developed to explore the mechanism of action of pharmacological and genetic perturbations within cells,[45] as well as a live cell imaging assay against six patient-derived glioblastoma cell lines (GCGR-E13, GCGR-E28, GCGR-E21, GCGR-E57, GCGR-E31, and GCGR-E34), covering classical, mesenchymal, and proneural subtypes, respectively (see Methods and Figure 1B–D), along with a healthy human fetal neuronal stem cell line (GCGR-NS9FB_B).
(§2) Cell survival was quantified by nuclei counts from the Hoechst dye-stained nuclei and IC50 values calculated along with 95% confidence intervals (Figure 1B; see Table S2 for full details). […]
(§3) High Content Phenotypic Screening assays
(§4) Cell lines (glioma stem cell lines and normal foetal neural stem cells) were seeded on laminin (10 µg/mL) coated 384-well plates (Greiner Bio-One, 781091) at 1,000 cells/well and incubated overnight at 37 °C and 5% CO2. Aqueous peptide solutions (10 mM) were further diluted to 1 mM in water containing 10 % glycerol and 0.01 % TX-100. […]
(§5) The cells were placed in an IncuCyte live cell imager (Essen BioScience) and imaged every three hours for 72 hours. Prior to fixation, the plates were removed from the IncuCyte and stained with Mitrotracker DeepRed (Invitrogen, M22426, 300 nM, 30 minutes). Cells were then fixed using 4 % formaldehyde and permeabilized with 0.1 % TX-100 in PBS. The cells were stained with ‘Cell Painting’ […]
(§6) assay reagents1: Hoechst 33342 (10 mg/mL stock, Molecular Probes, 1:5000), SYTO14 […]
(§7) BSA/PBS. The plates were imaged using an ImageXpress high content microscope (Molecular Devices). Cells were imaged with a 20× objective, covering 6 fields-of-view in each well. The data was then analyzed using a custom CellProfiler software pipeline using the University of Edinburgh high performance computing cluster. Dose response plots were calculated using HC StratomineR (corelifeanalytics.com). Nuclei count data was analyzed separately to generate cell survival metrics (normalized to aqueous glycerol/TX -100 control). […]

A further assay relates to GCGR-E34. The conditions noted are these: 72 h. The protocol:
as §1, §2, §3, §4, §5, §6, §7

A further assay has as its system GCGR-E28. The following applies: 72 h. The protocol: as §1, §2, §3
(§8) Cell lines (glioma stem cell lines and normal foetal neural stem cells) were seeded on laminin (10 µg/mL) coated 384-well plates (Greiner Bio-One, 781091) at 1,000 cells/well and incubated overnight at 37 °C and 5% CO2. Aqueous peptide solutions (10 mM) were further diluted to 1 mM in water containing 10 % glycerol and 0.01 % TX-100. Cells were dosed using a D300 digital dispenser (Tecan) by 10-point dose response (30 µM – 1 µM) in triplicate and with aqueous glycerol/TX-100 as control. The cells were placed in an IncuCyte live cell imager (Essen BioScience) and imaged every three hours for 72 hours. Prior to fixation, the plates were removed from the IncuCyte and stained with Mitrotracker DeepRed (Invitrogen, M22426, 300 nM, 30 minutes). Cells were then fixed using 4 % formaldehyde and permeabilized with 0.1 % TX-100 in PBS. The cells were stained with ‘Cell Painting’ […]
as §6, §7

A further assay has as its system GCGR-E31. The conditions noted are these: 72 h. The protocol: as §1, §2, §3, §8, §6, §7
The next assay relates to GSK-3. The assay can be described thus: Reverse phase protein array (RPPA). The following applies: peptides at 3 μM, 3 h and 24 h (peptide 7: 24 h only), seven cell lines; fold difference vs water control. From the text: The phenotypic effect of the peptides was visualized by live cell imaging (Figure 1C, IncuCyte live cell imager) and also quantified via image analysis of cells labeled with the cell painting reagents (see Supporting Information) followed by image analysis using Cell Profiler (cellprofiler.org). Multiparametric outputs from Cell Profiler were processed using Phenonaut[46] [v 2.0.3] (see Jupyter notebook ‘Phenonaut_processing_of_nullomer_data.ipynb’ in the Aminonaut repository for methods and code used). […] Peptides 2, 5, and 7 were deemed to have the most merit for mode of action determination using reverse phase protein arrays (RPPAs) (see Supporting Information for methods). […]
growth and stemness was further supported by the addition of laminin extracellular matrix (Cultrex 3446-005-01, 4-10 mg/mL) to the growth media and to create pre-coated flasks/384w plates. Cells were cultured in T75 cm2 flasks and passaged as follows: Glioma stem cells generally grow slowly (~60hrs doubling time, excepting GCGR-E57 cells ~24hrs) and lag phase was exacerbated by sparse seeding. Cell confluence is generally ~80 -90% prior to passaging, whereby the culture media was aspirated, the cells washed (PBS) and Accutase solution (Sigma A6964, 1 mL) was added to detach the cells, which were then incubated at 37 °C for <5 minutes. Cells were resuspended in media and centrifuged for 3 minutes at 300 × g. Resuspended cells were typically split 1:5, 1:8 (GCGR-E57 cells) and 1:2, 1:4 for the remainder of cell lines, depending on requirements . Cells were passaged every 4-7 days to maintain health and growth and discarded after 3 months, whereupon a fresh batch of cells […]
Reverse Phase Protein Array (RPPA)
Culture media was aspirated and cells washed with wash media. Accutase solution (1mL) was used to detach the cells which were then incubated at 37 °C for 5 minutes. 10 mL of wash media was added, and the cells were pipetted into a 15 mL conical tube, after which they were centrifuged for 3 minutes at 300× g to form a pellet. Supernatant was aspirated, and cells resuspended in 5 mL of wash media. A 10 μL sample of the cell suspension was pipetted onto the reading surface of a DeNovix CellDrop automated cell counter and the reading was used to dilute the suspension in complete media to 250,000 cells/mL. 2 mL of this suspension was added to each well of 6-well plates to seed plates at 500,000 cells per well. 2 plates of each cell type (GCGR-E13, GCGR-E21, GCGR-E28, GCGR-E31, GCGR-E34, GCGR-E57 and GCGR-NS9FB_B) were seeded, one each for two nullomer dosage […]
timepoints (3 h and 24 h). The cells were incubated in the 6-well plates overnight, and dosing was carried out in the following morning. […]

In general, IC50 refers to the concentration at which inhibition is half-maximal. High values mean weaker potency in that assay, low ones greater potency in that assay. Take H-RRRRRCQWW-NH2 [Peptide 2]: the concentration for half-maximal inhibition (IC50) with GCGR-E13 came out at 4.4 µM; in the assay on GCGR-E34, 5.2 µM; in the assay with GCGR-E28, 5.4 µM; in the assay on GCGR-E31, 5.1 µM. In addition, in the assay on GSK-3, the “GSK-3 regulation in RPPA” value is listed as “downregulation of GSK-3β”.
